Laboratory results as given in article PMC4839570, “Novel Anthra[1,2-c][1,2,5]Thiadiazole-6,11-Diones as Promising Anticancer Lead Compounds: Biological Evaluation, Characterization & Molecular Targets Determination” (PLoS ONE, 2016).
Read-outs that look alike come from different tables or passages of the source.

Legend:
Type in all cases: cell-based
A549 = assay: JFCR-39 cytotoxicity screen
NCI-H23 = assay: NCI-60 cytotoxicity screen
SNB-19 = assay: NCI-60 cytotoxicity screen
PC-3 = assay: JFCR-39 cytotoxicity screen
SF-295 = assay: NCI-60 cytotoxicity screen
ACHN = assay: NCI-60 cytotoxicity screen
MKN7 = assay: JFCR-39 cytotoxicity screen
NCI-H226 [1] = assay: NCI-60 cytotoxicity screen
IGROV1 = assay: NCI-60 cytotoxicity screen
NCI/ADR-RES = assay: NCI-60 cytotoxicity screen
HBC-5 = assay: JFCR-39 cytotoxicity screen
HCT-15 = assay: NCI-60 cytotoxicity screen
CAKI-1 = assay: NCI-60 cytotoxicity screen
NCI-H460 [2] = assay: JFCR-39 cytotoxicity screen
SF-268 = assay: JFCR-39 cytotoxicity screen
SK-MEL-28 = assay: NCI-60 cytotoxicity screen
UO-31 = assay: NCI-60 cytotoxicity screen
NCI-H226 [3] = assay: JFCR-39 cytotoxicity screen
MOLT-4 = assay: NCI-60 cytotoxicity screen
MCF-7 = assay: JFCR-39 cytotoxicity screen
DU-145 = assay: JFCR-39 cytotoxicity screen
NCI-H460 [4] = assay: NCI-60 cytotoxicity screen
U251 = assay: NCI-60 cytotoxicity screen
K-562 = assay: NCI-60 cytotoxicity screen; details: Homo sapiens, K562, Fig 7, read-out: mean log10 of the GI50 values (converted)
RXF 393 = assay: NCI-60 cytotoxicity screen
HOP-92 = assay: NCI-60 cytotoxicity screen
DMS273 = assay: JFCR-39 cytotoxicity screen
T-47D = assay: NCI-60 cytotoxicity screen
HBC-4 = assay: JFCR-39 cytotoxicity screen
MCF7 = assay: NCI-60 cytotoxicity screen
[5] = Homo sapiens, read-out: LC50 (the source's name)
[6] = Homo sapiens, Fig 7, read-out: mean log10 of the GI50 values (converted)
[7] = Homo sapiens, five-dose, read-out: GI50
[8] = Homo sapiens, five-dose, read-out: LC50 (the source's name)

O=C1c2ccccc2C(=O)c2c1cc(Cl)c1nsnc21 [NSC757963] gave a TGI (A549) of 43.0 µM, a GI50 (A549; Homo sapiens) of 20 µM and a CC50 (A549; [5]) of 95 µM. It also gave a GI50 (NCI-H23; [6]) of 3.63 µM, a GI50 (NCI-H23; [7]) of 3.62 µM and a CC50 (NCI-H23; [8]) of 74.6 µM. It also gave a TGI (NCI-H23; five-dose) of 17.2 µM, a GI50 (SNB-19; [6]) of 9.55 µM and a GI50 (SNB-19; [7]) of 13.9 µM. The CC50 (SNB-19; [8]) was 58.9 µM, the TGI (SNB-19; five-dose) was 28.6 µM and the TGI (PC-3) was 3.2 µM. For the same compound, the GI50 (PC-3; Homo sapiens) was 1.6 µM, the CC50 (PC-3; [5]) was 6.5 µM and the GI50 (SF-295; [6]) was 17.4 µM. It also gave a GI50 (SF-295; [7]) of 16.6 µM, a CC50 (SF-295; [8]) of 62.9 µM and a TGI (SF-295; five-dose) of 32.3 µM. It also gave a GI50 (ACHN; [6]) of 2 µM, a GI50 (ACHN; [7]) of 2 µM and a CC50 (ACHN; [8]) of 7.74 µM. The TGI (ACHN; five-dose) was 3.93 µM, the TGI (MKN7) was 3.6 µM and the GI50 (MKN7; Homo sapiens, MKN-7) was 1.7 µM. It also gave a CC50 (MKN7; Homo sapiens, MKN-7, read-out: LC50 (the source's name)) of 7.4 µM, a GI50 (NCI-H226 [1]; [6]) of 16.2 µM and an LC50 (concentration killing 50% of cells) (NCI-H226 [1]; Homo sapiens, five-dose) of 53.9 µM. The GI50 (NCI-H226 [1]; [7]) was 14.9 µM, the TGI (NCI-H226 [1]; five-dose) was 28.3 µM and the GI50 (IGROV1; Homo sapiens, IGROV-1, Fig 7, read-out: mean log10 of the GI50 values (converted)) was 2.51 µM. It also gave a GI50 (IGROV1; Homo sapiens, IGROV-1, five-dose, read-out: GI50) of 3.3 µM, a CC50 (IGROV1; Homo sapiens, IGROV-1, five-dose, read-out: LC50 (the source's name)) of 45.7 µM and a TGI (IGROV1; five-dose) of 15.6 µM. For the same compound, the GI50 (NCI/ADR-RES; [6]) was 3.09 µM, the GI50 (NCI/ADR-RES; [7]) was 3.12 µM and the CC50 (NCI/ADR-RES; [8]) was > 100 µM. For the same compound, the TGI (NCI/ADR-RES; five-dose) was 18.8 µM, the TGI (HBC-5) was 4.1 µM and the GI50 (HBC-5; Homo sapiens, HBC5) was 2.1 µM. It also gave a CC50 (HBC-5; Homo sapiens, HBC5, read-out: LC50 (the source's name)) of 8.3 µM, a GI50 (HCT-15; [6]) of 6.61 µM and a GI50 (HCT-15; [7]) of 10.2 µM. For the same compound, the CC50 (HCT-15; [8]) was 55.9 µM, the TGI (HCT-15; five-dose) was 23.8 µM and the GI50 (CAKI-1; [6]) was 7.08 µM. The GI50 (CAKI-1; [7]) was 12.3 µM, the CC50 (CAKI-1; [8]) was 58.8 µM and the TGI (CAKI-1; five-dose) was 26.8 µM. The TGI (NCI-H460 [2]) was 26.0 µM, the GI50 (NCI-H460 [2]; Homo sapiens) was 10 µM and the CC50 (NCI-H460 [2]; [5]) was 64 µM. It also gave a TGI (SF-268) of 4.0 µM, a GI50 (SF-268; Homo sapiens) of 2 µM and a CC50 (SF-268; [5]) of 6.5 µM. For the same compound, the GI50 (SK-MEL-28; [6]) was 5.37 µM, the GI50 (SK-MEL-28; [7]) was 9.52 µM and the CC50 (SK-MEL-28; [8]) was 47 µM. It also gave a TGI (SK-MEL-28; five-dose) of 21.5 µM, a GI50 (UO-31; [6]) of 6.31 µM and a GI50 (UO-31; [7]) of 14 µM. It also gave a CC50 (UO-31; [8]) of 52.4 µM, a TGI (UO-31; five-dose) of 27.1 µM and a TGI (NCI-H226 [3]) of 17.0 µM. The GI50 (NCI-H226 [3]; Homo sapiens) was 4.2 µM, the CC50 (NCI-H226 [3]; [5]) was 51 µM and the GI50 (MOLT-4; [6]) was 0.437 µM. For the same compound, the GI50 (MOLT-4; [7]) was 0.46 µM, the CC50 (MOLT-4; [8]) was > 100 µM and the TGI (MOLT-4; five-dose) was 26.7 µM. It also gave a TGI (MCF-7) of 3.9 µM, a GI50 (MCF-7; Homo sapiens, MCF7) of 1.8 µM and a CC50 (MCF-7; Homo sapiens, MCF7, read-out: LC50 (the source's name)) of 8 µM. For the same compound, the TGI (DU-145) was 6.3 µM, the GI50 (DU-145; Homo sapiens) was 2.5 µM and the CC50 (DU-145; [5]) was 23 µM. For the same compound, the GI50 (NCI-H460 [4]; Homo sapiens, NCI-460, five-dose, read-out: GI50) was 30.2 µM, the CC50 (NCI-H460 [4]; Homo sapiens, NCI-460, five-dose, read-out: LC50 (the source's name)) was > 100 µM and the GI50 (NCI-H460 [4]; Homo sapiens, NCI-H460, Fig 7, read-out: mean log10 of the GI50 values (converted)) was 33.1 µM. The TGI (NCI-H460 [4]; NCI-460, five-dose) was >100 µM, the GI50 (U251; Homo sapiens, U-251, Fig 7, read-out: mean log10 of the GI50 values (converted)) was 2.34 µM and the GI50 (U251; Homo sapiens, U-251, five-dose, read-out: GI50) was 3.29 µM. The CC50 (U251; Homo sapiens, U-251, five-dose, read-out: LC50 (the source's name)) was 32.7 µM, the TGI (U251; five-dose) was 10.4 µM and the GI50 (K-562) was 0.759 µM. The GI50 (RXF 393; Homo sapiens, RXF393, Fig 7, read-out: mean log10 of the GI50 values (converted)) was 1.86 µM, the GI50 (RXF 393; [7]) was 2.17 µM and the CC50 (RXF 393; [8]) was 27.1 µM. For the same compound, the TGI (RXF 393; five-dose) was 7.21 µM, the GI50 (HOP-92; [6]) was 1.45 µM and the GI50 (HOP-92; [7]) was 1.43 µM. For the same compound, the CC50 (HOP-92; [8]) was 7.84 µM, the TGI (HOP-92; five-dose) was 3.34 µM and the TGI (DMS273) was 4.1 µM. For the same compound, the GI50 (DMS273; Homo sapiens, DMS-273) was 2.1 µM, the CC50 (DMS273; Homo sapiens, DMS-273, read-out: LC50 (the source's name)) was 8.1 µM and the GI50 (T-47D; Homo sapiens, T47D, Fig 7, read-out: mean log10 of the GI50 values (converted)) was 0.912 µM. The GI50 (T-47D; Homo sapiens, T47D, five-dose, read-out: GI50) was 1.97 µM, the CC50 (T-47D; Homo sapiens, T47D, five-dose, read-out: LC50 (the source's name)) was > 100 µM and the TGI (T-47D; five-dose) was 4.56 µM. It also gave a TGI (HBC-4) of 3.1 µM, a GI50 (HBC-4; Homo sapiens, HBC4) of 1.7 µM and a CC50 (HBC-4; Homo sapiens, HBC4, read-out: LC50 (the source's name)) of 5.6 µM. The GI50 (MCF7; [6]) was 1.7 µM, the GI50 (MCF7; [7]) was 1.78 µM and the CC50 (MCF7; [8]) was 10.4 µM. The TGI (MCF7; five-dose) was 4.24 µM.
